Here are results for 15 compounds from ChEMBL document CHEMBL1909046, “DrugMatrix in vitro pharmacology data”.

Structures are written as SMILES.

In series [1] the target is T1, Alpha-1B adrenergic receptor (Rattus norvegicus, UniProt P15823).
T1 sequence (P15823 whole entry): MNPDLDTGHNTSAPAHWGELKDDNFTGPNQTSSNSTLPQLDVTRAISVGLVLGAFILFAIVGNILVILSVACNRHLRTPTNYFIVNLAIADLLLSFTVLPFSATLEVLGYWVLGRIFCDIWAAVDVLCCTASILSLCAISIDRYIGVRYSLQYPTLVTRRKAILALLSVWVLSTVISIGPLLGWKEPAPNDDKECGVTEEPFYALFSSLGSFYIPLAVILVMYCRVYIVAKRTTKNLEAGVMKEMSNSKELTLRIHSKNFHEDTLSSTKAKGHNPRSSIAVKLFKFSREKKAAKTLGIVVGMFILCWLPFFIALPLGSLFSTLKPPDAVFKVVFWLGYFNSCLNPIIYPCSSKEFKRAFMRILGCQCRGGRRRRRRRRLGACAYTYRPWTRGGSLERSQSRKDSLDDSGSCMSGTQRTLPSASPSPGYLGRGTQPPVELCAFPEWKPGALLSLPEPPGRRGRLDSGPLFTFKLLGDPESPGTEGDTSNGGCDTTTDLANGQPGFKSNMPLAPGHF
Put plainly: DRUGMATRIX: Alpha-1B adrenergic receptor radioligand binding (ligand: prazosin). The class given is cell membranes, Wistar, Liver, Membrane. The settings on record: Not Active = under 50% inhibition at 10 µM.

Series [2] has as its target T2, Type-2 angiotensin II receptor (Homo sapiens, UniProt P50052). Note: in other assays of this panel Not Active means under 50% inhibition at 10 µM.
T2 sequence (P50052 whole entry): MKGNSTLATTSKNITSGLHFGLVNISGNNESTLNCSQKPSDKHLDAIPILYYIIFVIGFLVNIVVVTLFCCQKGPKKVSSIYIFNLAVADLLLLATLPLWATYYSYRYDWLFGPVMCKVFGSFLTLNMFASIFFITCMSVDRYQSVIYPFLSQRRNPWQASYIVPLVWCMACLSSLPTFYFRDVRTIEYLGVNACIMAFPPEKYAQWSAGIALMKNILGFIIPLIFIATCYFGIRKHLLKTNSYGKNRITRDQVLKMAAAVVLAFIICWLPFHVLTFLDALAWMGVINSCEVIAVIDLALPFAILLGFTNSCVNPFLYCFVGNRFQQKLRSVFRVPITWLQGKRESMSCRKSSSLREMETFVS
Type of series: cell-based. The conditions noted are these: cho-k1.

The nature of series [3]: DRUGMATRIX: Glutamate, NMDA, Agonism radioligand binding (ligand: [3H] CGP-39653). The class given is cell membranes, Rattus norvegicus, Wistar, Cerebral cortex, Membrane. The conditions noted are these: Not Active = under 50% inhibition at 10 µM.
Series [4] in a line: DRUGMATRIX: Interleukin IL-1 radioligand binding (ligand: [125I] interleukin 1beta). The settings on record: nih3t3; Not Active = under 50% inhibition at 10 µM. The class given is cell membranes, Membrane.
Another series concerns the target Melanocortin receptor 5 (Homo sapiens, UniProt P33032). The class given is cell membranes, Membrane. The settings on record: hek293. Note: in other assays of this panel Not Active means under 50% inhibition at 10 µM.
Series [5] is described as follows: DRUGMATRIX: Platelet-Derived Growth Factor (PDGF) radioligand binding (ligand: [125I] PDGF). Type of series: cell-based. The conditions noted are these: nih3t3; Not Active = under 50% inhibition at 10 µM.
For another series, the target named is Acetylcholinesterase (Homo sapiens, UniProt P22303). Put plainly: DRUGMATRIX: Acetylcholinesterase enzyme inhibition (substrate: acetylthiocholine). The class given is cell-based, HEK293. The conditions noted are these: Not Active = under 50% inhibition at 10 µM.
In a further series the target is T3, Cytochrome P450 1A2 (Homo sapiens, UniProt P05177). Note: in other assays of this panel Not Active means under 50% inhibition at 10 µM.
T3 sequence (P05177 whole entry): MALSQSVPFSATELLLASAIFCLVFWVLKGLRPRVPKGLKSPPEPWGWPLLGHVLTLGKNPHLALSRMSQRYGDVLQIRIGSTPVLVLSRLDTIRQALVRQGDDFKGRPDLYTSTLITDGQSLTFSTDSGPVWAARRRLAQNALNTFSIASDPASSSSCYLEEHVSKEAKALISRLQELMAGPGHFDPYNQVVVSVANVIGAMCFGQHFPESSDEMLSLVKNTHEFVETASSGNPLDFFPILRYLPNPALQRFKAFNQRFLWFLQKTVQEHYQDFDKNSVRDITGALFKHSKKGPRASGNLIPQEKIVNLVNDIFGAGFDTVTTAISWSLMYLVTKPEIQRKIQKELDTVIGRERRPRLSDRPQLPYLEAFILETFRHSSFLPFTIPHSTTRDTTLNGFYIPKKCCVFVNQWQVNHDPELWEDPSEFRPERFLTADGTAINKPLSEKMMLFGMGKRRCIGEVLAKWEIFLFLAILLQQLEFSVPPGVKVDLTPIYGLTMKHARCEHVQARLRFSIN
The conditions noted are these: bti-tn-5b1-4.

Chain of Acetylcholinesterase (P22303 whole entry): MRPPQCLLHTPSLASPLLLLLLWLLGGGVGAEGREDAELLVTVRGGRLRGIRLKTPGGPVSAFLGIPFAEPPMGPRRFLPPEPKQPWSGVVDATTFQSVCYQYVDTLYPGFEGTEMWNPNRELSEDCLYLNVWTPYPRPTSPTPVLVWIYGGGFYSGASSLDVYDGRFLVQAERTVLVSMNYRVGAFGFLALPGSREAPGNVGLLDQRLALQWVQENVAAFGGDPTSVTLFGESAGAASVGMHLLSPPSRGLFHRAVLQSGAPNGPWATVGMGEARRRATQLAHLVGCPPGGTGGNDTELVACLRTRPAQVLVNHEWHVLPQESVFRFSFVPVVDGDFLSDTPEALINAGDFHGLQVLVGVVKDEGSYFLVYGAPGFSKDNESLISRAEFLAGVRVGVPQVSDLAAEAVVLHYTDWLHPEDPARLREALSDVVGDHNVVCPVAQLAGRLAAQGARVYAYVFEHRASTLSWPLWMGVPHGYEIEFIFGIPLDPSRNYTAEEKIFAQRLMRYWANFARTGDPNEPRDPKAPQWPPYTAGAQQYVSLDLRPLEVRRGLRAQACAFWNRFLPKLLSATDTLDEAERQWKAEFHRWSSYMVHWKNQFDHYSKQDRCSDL
Chain of Melanocortin receptor 5 (P33032 whole entry): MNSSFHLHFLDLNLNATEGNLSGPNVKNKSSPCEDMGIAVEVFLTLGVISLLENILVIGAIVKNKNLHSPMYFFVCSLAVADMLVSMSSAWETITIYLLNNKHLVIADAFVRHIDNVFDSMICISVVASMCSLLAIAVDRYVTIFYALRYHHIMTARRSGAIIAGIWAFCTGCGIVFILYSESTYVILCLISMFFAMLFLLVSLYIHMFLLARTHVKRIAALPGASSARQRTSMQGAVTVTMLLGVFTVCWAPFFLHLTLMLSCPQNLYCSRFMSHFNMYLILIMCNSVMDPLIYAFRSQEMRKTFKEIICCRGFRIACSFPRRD

Consider `S=C=Nc1cccc2ccccc12` [1-NAPHTHYLISOTHIOCYANATE], for which the IC50 entry (in series [1]; in series [2]; in series [3]; in series [4]; against Melanocortin receptor 5; in series [5]) was “Not Active” in each case. Also, the IC50 (as a rule, the concentration needed to halve the response being measured) against Acetylcholinesterase (hek293) is given as “Not Active”. Further, the Ki entry in series [3], in series [4] and in series [5] was “Not Active” in each case.

In the case of `O=NN(CCCl)C(=O)NCCCl` [CARMUSTINE], the IC50 result (in series [1]; in series [2]; in series [3]; in series [4]; against Melanocortin receptor 5; in series [5]) was “Not Active” each time. The IC50 result against Acetylcholinesterase (hek293) is “Not Active”. Also, the Ki entry in series [3], in series [4] and in series [5] was “Not Active” each time.

Regarding `CC1=C(C(=O)O)N2C(=O)[C@@H](NC(=O)[C@H](N)c3ccccc3)[C@H]2SC1` [CEPHALEXIN ANHYDROUS], the IC50 result (in series [1]; in series [2]; in series [3]; in series [4]; at Melanocortin receptor 5; in series [5]) was “Not Active” each time. For the same compound, on Acetylcholinesterase (hek293), the IC50 entry is listed as “Not Active”. Further, the Ki entry in series [3], in series [4] and in series [5] was “Not Active” in each case.

As for `O=C(N[C@H](CO)[C@H](O)c1ccc([N+](=O)[O-])cc1)C(Cl)Cl` [CHLORAMPHENICOL], the IC50 result (in series [1]; in series [2]; in series [3]; in series [4]; against Melanocortin receptor 5; in series [5]) was “Not Active” each time. In addition, the IC50 entry on Acetylcholinesterase (hek293) was “Not Active”. The Ki entry in series [3], in series [4] and in series [5] was “Not Active” each time.

As to `CCOC(=O)C(C)(C)Oc1ccc(Cl)cc1` [CLOFIBRATE], the IC50 result (in series [1]; in series [2]; in series [3]; in series [4]; on Melanocortin receptor 5; in series [5]) was “Not Active” in each case. The IC50 result at Acetylcholinesterase (hek293) was “Not Active”. Besides, the Ki entry in series [3], in series [4] and in series [5] was “Not Active” in each case.

On to `C[C@@H]1C[C@@H]([C@H](O)CC2CC(=O)NC(=O)C2)C(=O)[C@@H](C)C1` [CYCLOHEXIMIDE], for which the IC50 result (in series [1]; in series [2]; in series [3]; in series [4]; on Melanocortin receptor 5; in series [5]) was “Not Active” throughout. Moreover, the IC50 entry on Acetylcholinesterase (hek293) is “Not Active”. The Ki result in series [3], in series [4] and in series [5] was “Not Active” each time.

For the compound `C/C=C/C[C@@H](C)[C@@H](O)[C@H]1C(=O)N[C@@H](CC)C(=O)N(C)CC(=O)N(C)[C@@H](CC(C)C)C(=O)N[C@@H](C(C)C)C(=O)N(C)[C@@H](CC(C)C)C(=O)N[C@@H](C)C(=O)N[C@H](C)C(=O)N(C)[C@@H](CC(C)C)C(=O)N(C)[C@@H](CC(C)C)C(=O)N(C)[C@@H](C(C)C)C(=O)N1C` [CYCLOSPORINE], the IC50 result (in series [1]; in series [2]; in series [3]; in series [4]; on Melanocortin receptor 5; in series [5]) was “Not Active” each time. Moreover, on Acetylcholinesterase (hek293), the IC50 result is on record as “Not Active”. The Ki entry in series [3], in series [4] and in series [5] was “Not Active” throughout.

For the compound `COc1ccc2c(c1)[C@]13CCCC[C@@H]1[C@H](C2)N(C)CC3` [DEXTROMETHORPHAN], the IC50 result (in series [1]; in series [2]; in series [3]; in series [4]; against Melanocortin receptor 5; in series [5]) was “Not Active” throughout. Further, at Acetylcholinesterase (hek293), the IC50 entry is reported as “Not Active”. The Ki entry in series [3], in series [4] and in series [5] was “Not Active” in each case.

Turning to `CN(C)c1ccc(C(=C2C=CC(=[N+](C)C)C=C2)c2ccc(N(C)C)cc2)cc1.[Cl-]` [GENTIAN VIOLET], the IC50 entry is “Not Active” in series [2]; “Not Active” in series [3]; “Not Active” in series [4]; “Not Active” against Melanocortin receptor 5; “Not Active” in series [5]; 5.85 µM at Acetylcholinesterase (read-out: IC50). Further, the IC50 entry on Cytochrome P450 1A2 is given as “Not Active”. The Ki result (in series [3]; in series [4]; in series [5]; on Cytochrome P450 1A2) was “Not Active” in each case.

On to `NC(=O)NO` [HYDROXYUREA], for which the IC50 entry (in series [1]; in series [2]; in series [3]; in series [4]; on Melanocortin receptor 5; in series [5]) was “Not Active” each time. In addition, the IC50 result on Acetylcholinesterase (hek293) is reported as “Not Active”. The Ki result in series [3], in series [4] and in series [5] was “Not Active” in each case.

For the compound `CCc1c2c(nc3ccc(OC(=O)N4CCC(N5CCCCC5)CC4)cc13)-c1cc3c(c(=O)n1C2)COC(=O)[C@]3(O)CC` [IRINOTECAN], the IC50 result (in series [1]; in series [2]; in series [3]; in series [4]; against Melanocortin receptor 5; in series [5]) was “Not Active” in each case. Besides, on Cytochrome P450 1A2, the IC50 result is “Not Active”. Also, the Ki entry (in series [3]; in series [4]; in series [5]; on Cytochrome P450 1A2) was “Not Active” throughout.

Take `CC(=O)Nc1cccc(O)c1` [METACETAMOL]: the IC50 result (in series [1]; in series [2]; in series [3]; in series [4]; against Melanocortin receptor 5; in series [5]) was “Not Active” throughout. For the same compound, the IC50 result against Acetylcholinesterase (hek293) is on record as “Not Active”. In addition, the Ki result in series [3], in series [4] and in series [5] was “Not Active” throughout.

As for `COc1ccc2cc([C@H](C)C(=O)O)ccc2c1` [NAPROXEN], the IC50 entry (in series [1]; in series [2]; in series [3]; in series [4]; at Melanocortin receptor 5; in series [5]) was “Not Active” throughout. Moreover, the Ki entry in series [3], in series [4] and in series [5] was “Not Active” in each case.

`COC(=O)C1=C(C)NC(C)=C(C(=O)OCC(C)C)C1c1ccccc1[N+](=O)[O-]` (stereo unspecified) [NISOLDIPINE]: the IC50 entry (in series [1]; in series [2]; in series [3]; in series [4]; against Melanocortin receptor 5; in series [5]) was “Not Active” throughout. In addition, the IC50 entry on Acetylcholinesterase (hek293) is “Not Active”. Also, the Ki result in series [3], in series [4] and in series [5] was “Not Active” throughout.

For `CCn1cc(C(=O)O)c(=O)c2cc(F)c(N3CCN(C)CC3)cc21` [PEFLOXACIN], the IC50 entry (in series [1]; in series [2]; in series [3]; in series [4]; against Melanocortin receptor 5; in series [5]) was “Not Active” in each case. Further, the IC50 entry against Acetylcholinesterase (hek293) is reported as “Not Active”. Moreover, the Ki result in series [3], in series [4] and in series [5] was “Not Active” throughout.
